pEC50: −log10 of the molar value. Like-named read-outs stand apart in the source and are kept apart here. Starred links: 1 amine or outer side, 2 acyl side, 3 side chain; linkers in the order of their positions; H or OH if unused. Non-standard residues stand in square brackets, D forms with d. Residues, ends and D or L forms follow the SMILES beside them. Groups on a side chain read outwards from the residue. *: point of attachment. C20 diacid = O=C(O)CCCCCCCCCCCCCCCCCCC(=O)*; αMePhe(2-F) = C[C@](N)(Cc1ccccc1F)C(=O)O; γGlu = O=C(O)[C@H](CCC(=O)[*:2])N[*:1]; αMeF = C[C@](N)(Cc1ccccc1)C(=O)O; αMeL = CC(C)C[C@](C)(N)C(=O)O; AEEA = NCCOCCOCC(=O)O; Ac3c = NC1(C(=O)O)CC1; Aib = CC(C)(N)C(=O)O
Columns and labels:
[1] = test system: human primary liver cells; format: cell-based; details: for Rel. A (Relative Activity) on human primary liver cells: relative to GCG
Procedure: The cAMP levels produced by compounds on human primary liver cells were determined in this experiment. Human primary liver cells were purchased from Lonza (cell product number HUCPG).
Frozen human primary liver cells were placed in a 37° C. constant temperature water bath for rapid thawing and recovery. The cell solution was transferred to 10 ml of HBSS for resuspension, and centrifuged at 1000 rpm for 5 minutes at room temperature.
(§1) 10 μL cell suspension was added to each well in the 384 well plate. […] Using the ECHO liquid transfer system, 100 nL of the prepared compound solution was added to the corresponding cell suspensions in the 384 well plate, rotated and shaken at 1000 rpm for 1 minute to mix evenly, and then incubated at room temperature for 60 minutes. 10 μL of detection reagent was added to each well after drug incubation was completed, and incubation was performed for 60 minutes.

RIN-m5F cells = format: cell-based, rat; details: for Rel. A (Relative Activity) on RIN-m5F: relative to GLP-1(7-37)
Procedure: This experiment measured the cAMP level produced by the compound on RIN-mF cells.
Frozen […] cells were placed in a 37° C. constant temperature water bath for rapid thawing and recovery. The cell solution was transferred to 10 ml of HBSS for resuspension, and centrifuged at 1000 rpm for 5 minutes at room temperature.
as §1, with “to each wells after drug” for “to each well after drug”

Human GCG R = biological target: T1, Human GCG R (Homo sapiens, UniProt P47871); test: cAMP (HTRF) activity in HEK-293 cells stably overexpressing human GCG receptor; format: cell-based; details: for Human GCG R Rel. A (Relative Activity): EC50 of human GCG / EC50 of compound
T1 construct: expressed in transfected cells; host or cells: HEK-293
Procedure: (§2) By measuring the cAMP signal response levels of the aforementioned cells, the agonistic activity of individual compound towards the corresponding receptor was determined. The intracellular cAMP content was measured using reagent kit available from Cisbio Corp. based on HTRF (homogeneous time-resolved fluorescence) technology.
(§3) The cell fluid was transferred to 10 ml of HBSS for resuspension, and centrifuged at 1000 rpm for 5 minutes at room temperature.
(§4) 10 μL cell suspension was added to each well in the 384 well plate. […] Using the ECHO liquid transfer system, 100 nL of the prepared compound solution was added to the corresponding cell suspensions in the 384 well plate, rotated and shaken at 1000 rpm for 1 minute to mix evenly, and then incubated at room temperature for 60 minutes. 10 μL of detection reagent was added to each well after drug incubation was completed, and incubation was performed in the kit at room temperature for 60 minutes. […] GraphPad Prism 5 plotting software was used to create compound concentration response curves and EC50 (nM) values was calculated.

3T3-L1 adipocytes = details: for Rel. A (Relative Activity) on 3T3-L1 adipocyte: relative to GIP
Procedure: Mouse 3T3-L1 precursor adipocytes can be induced to differentiate into mature adipocytes. […] After the cells became full and contacted with each other, DMEM differentiation medium containing 20% FBS, 0.5 mM IBMX, 0.4 ug/mL dexamethasone, and 5 ug/mL insulin was used to induce differentiation of 3T3-L1 adipocyte. After 5 days of induction and cultivation, DMEM medium containing […], 4 ug/ml insulin, and 10 uM rosiglitazone was used to continue induction and cultivation for 3 days. Then, DMEM medium containing 10% FBS was used to continue cultivation for 2-3 days to induce mature 3T3-L1 adipocytes.
The cAMP level produced by the compound on 3T3-L1 adipocytes was determined in this experiment. The tested compound solution was diluted step by step according to a concentration gradient of 3 times, to obtain a total of 10 series of concentration solutions. The solutions were added to induced mature 3T3-L1 adipocytes and incubated at room temperature for 60 minutes. 10 μL detection reagent in the kit was added to each well after drug incubation, and incubated at room temperature for another 60 minutes. […] GraphPad Prism 5 plotting software was used to create compound concentration-effect curves and calculation was performed.

Human GLP-1R = Human GLP-1R (Homo sapiens, UniProt P43220); test: cAMP (HTRF) activity in HEK-293 cells stably overexpressing human GLP-1 receptor; format: cell-based; parameters: expressed in transfected cells; host or cells: HEK-293; details: for Human GLP-1R Rel. A (Relative Activity): EC50 of human GLP-1 (7-37) / EC50 of compound; for pEC50: stable transfected cell cAMP activity, at least 3 independent tests
Procedure: as §2, §3, §4

Human GIP R = biological target: T2, Human GIP R (Homo sapiens, UniProt P48546); test: cAMP (HTRF) activity in CHO cells stably overexpressing GIP receptor; format: cell-based; details: for Human GIP R Rel. A (Relative Activity): EC50 of human GIP / EC50 of compound; for pEC50: stable transfected cell cAMP activity, at least 3 independent tests
T2 construct: expressed in transfected cells; host or cells: CHO
T2 sequence (P48546 22-466): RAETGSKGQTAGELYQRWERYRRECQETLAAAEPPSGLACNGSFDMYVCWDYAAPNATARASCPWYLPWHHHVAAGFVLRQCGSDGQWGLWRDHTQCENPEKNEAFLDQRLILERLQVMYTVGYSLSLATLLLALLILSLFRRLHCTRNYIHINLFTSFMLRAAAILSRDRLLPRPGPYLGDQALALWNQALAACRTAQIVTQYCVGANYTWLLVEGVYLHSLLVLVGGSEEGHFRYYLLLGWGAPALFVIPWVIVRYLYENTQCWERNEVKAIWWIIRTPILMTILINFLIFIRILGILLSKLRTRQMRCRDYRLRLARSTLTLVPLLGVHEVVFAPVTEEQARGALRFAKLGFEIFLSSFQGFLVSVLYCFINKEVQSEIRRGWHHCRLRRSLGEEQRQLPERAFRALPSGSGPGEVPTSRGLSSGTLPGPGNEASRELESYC
Procedure: as §2, §3, §4

T1 sequence (P47871 26-477): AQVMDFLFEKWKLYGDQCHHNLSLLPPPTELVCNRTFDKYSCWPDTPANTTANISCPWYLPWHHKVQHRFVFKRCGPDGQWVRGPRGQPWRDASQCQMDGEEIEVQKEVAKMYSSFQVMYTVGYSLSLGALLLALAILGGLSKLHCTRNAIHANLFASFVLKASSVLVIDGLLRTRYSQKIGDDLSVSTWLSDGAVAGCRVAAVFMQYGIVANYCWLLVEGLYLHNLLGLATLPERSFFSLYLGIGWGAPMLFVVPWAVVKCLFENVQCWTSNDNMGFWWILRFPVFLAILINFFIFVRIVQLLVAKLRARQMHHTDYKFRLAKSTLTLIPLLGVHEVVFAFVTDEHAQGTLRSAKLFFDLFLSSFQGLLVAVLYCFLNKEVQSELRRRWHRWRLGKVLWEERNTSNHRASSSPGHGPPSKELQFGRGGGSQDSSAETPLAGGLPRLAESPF
Human GLP-1R, sequence (P43220 24-463): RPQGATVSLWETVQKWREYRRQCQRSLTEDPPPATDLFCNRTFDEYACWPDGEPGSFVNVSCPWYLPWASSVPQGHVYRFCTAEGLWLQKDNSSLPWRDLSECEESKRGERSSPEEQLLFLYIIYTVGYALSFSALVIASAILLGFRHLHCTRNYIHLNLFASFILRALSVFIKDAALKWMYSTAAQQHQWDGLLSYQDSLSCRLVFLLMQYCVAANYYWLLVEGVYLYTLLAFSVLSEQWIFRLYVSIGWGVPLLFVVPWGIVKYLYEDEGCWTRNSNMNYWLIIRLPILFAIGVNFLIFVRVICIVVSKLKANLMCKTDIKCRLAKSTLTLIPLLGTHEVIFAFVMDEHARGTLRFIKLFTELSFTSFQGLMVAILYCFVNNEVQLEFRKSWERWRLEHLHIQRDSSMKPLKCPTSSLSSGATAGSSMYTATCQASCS

Row | pEC50 [1] | pEC50 (RIN-m5F cells) | Human GCG R Rel. A (Relative Activity) (Human GCG R) [%] | pEC50 (Human GCG R; stable transfected cell cAMP activity, at least 3 independent tests) | Human GLP-1R Rel. A (Relative Activity) (Human GLP-1R) [%] | pEC50 (Human GLP-1R) | Human GIP R Rel. A (Relative Activity) (Human GIP R) [%] | pEC50 (Human GIP R) | Molecule | Rel. A (Relative Activity) on human primary liver cells [1] [%] | Rel. A (Relative Activity) on RIN-m5F (RIN-m5F cells) [%] | pEC50 (3T3-L1 adipocytes) | Rel. A (Relative Activity) on 3T3-L1 adipocyte (3T3-L1 adipocytes) [%] | pEC50 (RIN-m5F cells; cAMP, at least 3 independent tests, read-out: EC50 on RIN-m5F rat pancreatic islet tumor cells)
1 | 9.52 | 8.80 | 98.28 | 10.24 | 220.00 | 10.70 | 1292.86 | 10.85 | CC[C@H](C)[C@H](NC(=O)[C@H](Cc1ccccc1)NC(=O)[C@H](C)NC(=O)C(C)(C)NC(=O)[C@H](CCC(N)=O)NC(=O)[C@H](C)NC(=O)[C@H](CCCCNC(=O)COCCOCCNC(=O)COCCOCCNC(=O)CC[C@H](NC(=O)CCCCCCCCCCCCCCCCCCC(=O)O)C(=O)O)NC(=O)[C@H](CCCCN)NC(=O)[C@H](CC(=O)O)NC(=O)[C@H](CC(C)C)NC(=O)[C@](C)(CC(C)C)NC(=O)[C@@H](NC(=O)[C@H](CO)NC(=O)[C@H](Cc1ccc(O)cc1)NC(=O)[C@H](CC(=O)O)NC(=O)[C@H](CO)NC(=O)[C@@H](NC(=O)[C@](C)(Cc1ccccc1F)NC(=O)[C@@H](NC(=O)CNC(=O)[C@H](Cc1c[nH]cn1)NC(=O)C(C)(C)NC(=O)[C@@H](N)Cc1ccc(O)cc1)[C@@H](C)O)[C@@H](C)O)[C@@H](C)CC)C(=O)N[C@@H](CCC(=O)O)C(=O)N[C@@H](Cc1ccc(O)cc1)C(=O)N[C@@H](CC(C)C)C(=O)N[C@@H](CC(C)C)C(=O)N[C@@H](CCC(=O)O)C(=O)NC(C)(C)C(=O)N[C@@H](Cc1c[nH]cn1)C(=O)N1CCC[C@H]1C(=O)N[C@@H](CO)C(=O)N[C@@H](CO)C(=O)NCC(=O)N[C@@H](CCC(N)=O)C(=O)N1CCC[C@H]1C(=O)N1CCC[C@H]1C(=O)N1CCC[C@H]1C(=O)N[C@@H](CO)C(N)=O [Compound 6] (H-Y[Aib]HGT[αMePhe(2-F)]TSDYSI[αMeL]LDKK([AEEA-AEEA-γGlu-C20 diacid])AQ[Aib]AFIEYLLE[Aib]HPSSGQPPPS-NH2; N-terminus assumed) | 1301.34 | 64.74 | 8.99 | 374.58 | 
2 | 8.11 | 9.06 | 32.95 |  | 220.00 | 10.70 | 1206.67 | 10.82 | CC[C@H](C)[C@H](NC(=O)[C@H](Cc1ccccc1)NC(=O)[C@H](C)NC(=O)C(C)(C)NC(=O)[C@H](CCC(N)=O)NC(=O)[C@H](C)NC(=O)[C@H](CCCCNC(=O)COCCOCCNC(=O)COCCOCCNC(=O)CC[C@H](NC(=O)CCCCCCCCCCCCCCCCCCC(=O)O)C(=O)O)NC(=O)[C@H](CCCCN)NC(=O)[C@H](CC(=O)O)NC(=O)[C@H](CC(C)C)NC(=O)[C@](C)(CC(C)C)NC(=O)[C@@H](NC(=O)[C@H](CO)NC(=O)[C@H](Cc1ccc(O)cc1)NC(=O)[C@H](CC(=O)O)NC(=O)[C@H](CO)NC(=O)[C@@H](NC(=O)[C@](C)(Cc1ccccc1)NC(=O)[C@@H](NC(=O)CNC(=O)[C@H](CCC(N)=O)NC(=O)C(C)(C)NC(=O)[C@@H](N)Cc1ccc(O)cc1)[C@@H](C)O)[C@@H](C)O)[C@@H](C)CC)C(=O)N[C@@H](CCC(=O)O)C(=O)N[C@@H](Cc1ccccc1)C(=O)N[C@@H](CC(C)C)C(=O)N[C@@H](CC(C)C)C(=O)N[C@@H](CCC(=O)O)C(=O)N[C@H](C(=O)NC(C)(C)C(=O)N1CCC[C@H]1C(=O)N[C@@H](CO)C(=O)N[C@@H](CO)C(=O)NCC(=O)N[C@@H](C)C(=O)N1CCC[C@H]1C(=O)N1CCC[C@H]1C(=O)NC1(C(=O)N[C@@H](CO)C(N)=O)CC1)[C@@H](C)O [Compound 30] (H-Y[Aib]QGT[αMeF]TSDYSI[αMeL]LDKK([AEEA-AEEA-γGlu-C20 diacid])AQ[Aib]AFIEFLLET[Aib]PSSGAPP[Ac3c]S-NH2; N-terminus assumed) | 49.73 | 117.54 | 8.15 | 53.67 | 
3 |  |  |  |  |  |  |  |  | CC[C@H](C)[C@H](NC(=O)[C@H](Cc1ccccc1)NC(=O)[C@H](C)NC(=O)C(C)(C)NC(=O)[C@H](CCC(N)=O)NC(=O)[C@H](C)NC(=O)[C@H](CCCCNC(=O)COCCOCCNC(=O)CC[C@H](NC(=O)CCCCCCCCCCCCCCCCCCC(=O)O)C(=O)O)NC(=O)[C@H](CCCCN)NC(=O)[C@H](CC(=O)O)NC(=O)[C@H](CC(C)C)NC(=O)[C@](C)(CC(C)C)NC(=O)[C@@H](NC(=O)[C@H](CO)NC(=O)[C@H](Cc1ccc(O)cc1)NC(=O)[C@H](CC(=O)O)NC(=O)[C@H](CO)NC(=O)[C@@H](NC(=O)[C@H](Cc1ccccc1)NC(=O)[C@@H](NC(=O)CNC(=O)[C@H](CCC(N)=O)NC(=O)C(C)(C)NC(=O)[C@@H](N)Cc1ccc(O)cc1)[C@@H](C)O)[C@@H](C)O)[C@@H](C)CC)C(=O)N[C@@H](CCC(=O)O)C(=O)N[C@@H](Cc1ccc(O)cc1)C(=O)N[C@@H](CC(C)C)C(=O)N[C@@H](CC(C)C)C(=O)N[C@@H](CCC(=O)O)C(=O)NC(C)(C)C(=O)NCC(=O)N1CCC[C@H]1C(=O)N[C@@H](CO)C(=O)N[C@@H](CO)C(=O)NCC(=O)N[C@@H](C)C(=O)N1CCC[C@H]1C(=O)N1CCC[C@H]1C(=O)N1CCC[C@H]1C(=O)N[C@@H](CO)C(N)=O [Compound 45] (H-Y[Aib]QGTFTSDYSI[αMeL]LDKK([AEEA-γGlu-C20 diacid])AQ[Aib]AFIEYLLE[Aib]GPSSGAPPPS-NH2) |  |  | 8.09 | 46.89 | 

Row | Molecule | pEC50 [1] | pEC50 (RIN-m5F cells) | Human GCG R Rel. A (Relative Activity) (Human GCG R) [%] | pEC50 (Human GCG R; stable transfected cell cAMP activity, at least 3 independent tests) | Human GLP-1R Rel. A (Relative Activity) (Human GLP-1R) [%] | pEC50 (Human GLP-1R) | Human GIP R Rel. A (Relative Activity) (Human GIP R) [%] | pEC50 (Human GIP R) | Rel. A (Relative Activity) on human primary liver cells [1] [%] | Rel. A (Relative Activity) on RIN-m5F (RIN-m5F cells) [%] | pEC50 (3T3-L1 adipocytes) | Rel. A (Relative Activity) on 3T3-L1 adipocyte (3T3-L1 adipocytes) [%] | pEC50 (RIN-m5F cells; cAMP, at least 3 independent tests, read-out: EC50 on RIN-m5F rat pancreatic islet tumor cells)
4 | GLP-1(7-37) [reference compound] |  |  |  |  | 100.00 |  |  |  |  | 100.00 |  |  | 8.99

— US20250129135A1, “Multi-Agonist and Use Thereof” (priority 2021, published 2025)
